The subject of data set [1] is liver function markers ALT, AST, ALK, LDH. Nature of the data set: Liver function markers in serum of mice overdosed with APAP (350 mg/kg). It counts as in vivo, C57BL/6J mice. Particulars: vehicle plus 25 mg/kg 25HC3S 0.5 hours after overdose, 24 hours after treatment. The procedure: The ability of 25HC3S to treat symptoms of APAP overdose was examined. 12-week-old male C57BL/6J mice were fasted overnight and injected (intraperitoneally) with APAP: 600 mg/kg (high dose) for mortality studies or 350 mg/kg (low dose) for liver function and gene studies. Control mice received only vehicle (20% (v/v) a propylene glycol, 4% (w/v) cyclodextrin (powdered hydroxypropyl beta cyclodextrin in sterile 10% (w/v) glucose.
A composition comprising 25 mg/kg of 25HC3S sodium salt in vehicle was administered intravenously to the experimental mice 0.5 hours after APAP administration. Mortality was monitored in the high dose mice. In the low dose mice, the liver function markers aspartate aminotransferase (AST), alanine aminotransferase (ALT), alkaline phosphatase (ALK) and lactate dehydrogenase (LDH), were measured in serum. Impacts on gene expression were determined by Quantitative Real-time PCR. Membrane potentials were measured using JC1 staining and flow cytometry.
One group of low dose mice received treatment with 25HC3S in vehicle 0.5 hours after the overdose. In this group, liver function markers were assessed 24 hours after treatment. […] However, in mice treated with vehicle alone, the values were […] and in mice treated with vehicle plus 25 mg/kg of 25HC3S, the values were near normal. The differences in the measured values were statistically significant.

The nature of data set [2]: Osmolality of 30 mg/mL 25HC3S, 250 mg/mL HPbCD, 10 mM phosphate solution. Particulars: 30 mg/mL 25HC3S sodium salt, 10 mM sodium phosphate buffer in water. Type of data set: physicochemical. The procedure:
The optimal concentration of HPbCD to solubilize a high amount of 25HC3S, and to contain a small amount of buffer (10 mM phosphate buffer) to minimize pH changes on stability, is 250 mg/mL HPbCD. The solution of 30 mg/mL 25HC3S sodium salt, 250 mg/mL HPbCD with 10 mM sodium phosphate buffer in water has an osmolality of approximately 320 mmol/kg. Isotonic solutions range from 270-340 mmol/kg. Higher concentrations of HPbCD greater than 250 mg/mL with higher than 30 mg/mL concentrations of 25HC3S lead to hypertonic solutions. Hypertonic solutions can cause pain upon subcutaneous and intramuscular injection. Conversely, concentrations of HPbCD much less than 250 mg/mL with much less than 30 mg/mL concentrations of 25HC3S require the addition of an isotonic agent, such as sodium chloride or mannitol, to bring the isotonicity into the expected range for a parenteral dosage form.

A short description of data set [3]: Solubility of 25HC3S in 10 mM sodium phosphate buffer pH 7.6 with HPbCD at 5, 15 and 25°C. It counts as physicochemical. Particulars: 25°C/60% RH, supernatant.

Experimental findings from patent US20230047788A1, “COMPOSITIONS COMPRISING 5-CHOLESTEN-3, 25-DIOL, 3-SULFATE (25HC3S) OR PHARMACEUTICALLY ACCEPTABLE SALT THEREOF AND AT LEAST ONE CYCLIC OLIGOSACCHARIDE” (Virginia Commonwealth University, priority 2016, published 2023) are described below.

As to `C[C@H](CCCC(C)(C)O)[C@H]1CC[C@H]2[C@@H]3CC=C4C[C@@H](OS(=O)(=O)[O-])CC[C@]4(C)[C@H]3CC[C@]12C.[Na+]` [25HC3S, 5-cholesten-3, 25-diol, 3-sulfate], in data set [1], the “liver function markers ALT, AST and LDH” value is recorded as “near normal”. For the same compound, the Osmolality result in data set [2] is “approximately 320 mmol/kg”. In addition, the figures for the “pH of Filtrate Day 3” value in data set [3] (HPbCD 0 mg/mL) and in data set [3] (HPbCD 250 mg/mL) were 7.532 and 7.842, respectively.
